Measurements from EPA's ToxRefDB 2.

What was measured:
mouse [1] = settings: Carcinogenicity; b6c3f1; Oral; Feed; dose end: 103 week; group: systemic; systemic / in life observation / clinical signs / [other] + systemic / pathology microscopic / ovary / atrophy + systemic / pathology …
mouse [2] = settings: Sub-acute repeat dose toxicity, b6c3f1, Oral, Feed, dose end: 14 day, group: systemic
mouse [3] = settings: Prenatal developmental toxicity study, cd1, Oral, Feed, dose end: 15 GD
rat [4] = settings: Carcinogenicity; fischer; Oral; Feed; dose end: 103 week; group: systemic; systemic / in life observation / clinical signs / muscle fasciculation + systemic / in life observation / clinical signs / skeletal muscle …
rabbit = settings: Prenatal developmental toxicity study, new zealand white, Oral, Gavage/Intubation, dose end: 19 GD
rat [5] = settings: Sub-acute repeat dose toxicity, fischer, Oral, Feed, dose end: 14 day, group: systemic
mouse [6] = settings: Multigenerational reproductive toxicity study, cd1, Oral, Feed, dose end: 2 generation
mouse [7] = settings: Subchronic oral toxicity in rodents, b6c3f1, Feed, dose end: 13 week, group: systemic
rat [8] = settings: Subchronic oral toxicity in rodents, fischer, Feed, dose end: 13 week, group: systemic
mouse [9] = settings: Combined chronic toxicity/carcinogenicity, b6c3f1, Oral, Gavage/Intubation, dose end: 2 year, group: systemic
rat [10] = settings: Subchronic oral toxicity in rodents, fischer, Gavage/Intubation, dose end: 6 month, group: systemic
mouse [11] = settings: Multigenerational reproductive toxicity study, other, Oral, Gavage/Intubation, dose end: 21 PND
rat [12] = settings: Subchronic oral toxicity in rodents, wistar, Water, dose end: 90 day
rat [13] = settings: Fertility (Segment I), sprague dawley, Oral, Gavage/Intubation, dose end: 0 mating
rat [14] = settings: Multigenerational reproductive toxicity study, sprague dawley, Oral, Gavage/Intubation, dose end: 2 generation
mouse [15] = settings: Subchronic oral toxicity in rodents, b6c3f1, Gavage/Intubation, dose end: 6 month, group: systemic
rat [16] = settings: Combined chronic toxicity/carcinogenicity; fischer; Oral; Gavage/Intubation; dose end: 2 year; group: systemic; systemic / in life observation / body weight / body weight + systemic / pathology microscopic / kidney / nephropathy + systemic / pathology …
[17] = systemic / in life observation / clinical signs / [other]
[18] = systemic / in life observation / clinical signs / [other] + systemic / in life observation / clinical signs / fur (altered appearance) + …
[19] = group: developmental, systemic / in life observation / body weight / fetal weight
[20] = group: maternal, reproductive / offspring survival early / dead fetuses / dead fetuses
[21] = group: developmental, developmental / developmental malformation / general / [other]
[22] = group: maternal, reproductive / reproductive performance / resorptions / resorptions + systemic / in life observation / body weight / body weight + systemic…
[23] = systemic / in life observation / body weight / body weight gain + systemic / in life observation / clinical signs / [other] + systemic / in …
[24] = systemic / in life observation / clinical signs / lethargy + systemic / in life observation / clinical signs / fur (altered appearance) + …
[25] = group: offspring, systemic / in life observation / clinical signs / cannibalism
[26] = group: offspring, systemic / in life observation / clinical signs / cannibalism + developmental / offspring survival late / [other] / [other] + systemic / in …
[27] = group: parental, systemic / in life observation / body weight / body weight + systemic / in life observation / clinical signs / cannibalism + systemic / in …
[28] = group: parental, systemic / in life observation / food consumption / food consumption + systemic / in life observation / water consumption / water …
[29] = group: reproductive, reproductive / offspring survival early / birth index / birth index + reproductive / reproductive performance / dystocia / dystocia + …
[30] = group: reproductive, reproductive / reproductive performance / estrous cycle / abnormal
[31] = systemic / in life observation / body weight / body weight + systemic / in life observation / body weight / body weight gain + systemic / in…
[32] = systemic / pathology microscopic / kidney / nephropathy + systemic / pathology microscopic / kidney / vacuolization cytoplasmic
[33] = systemic / pathology microscopic / kidney / nephropathy + systemic / pathology microscopic / kidney / vacuolization cytoplasmic + systemic…
[34] = systemic / in life observation / body weight / body weight + systemic / clinical chemistry / alanine aminotransferase (alt/sgpt) / alanine …
[35] = group: offspring, developmental / offspring survival late / viability index / viability index
[36] = group: parental, systemic / organ weight / kidney / relative to body weight
[37] = group: parental, systemic / organ weight / kidney / relative to body weight + systemic / in life observation / body weight / body weight
[38] = group: reproductive, reproductive / reproductive performance / fertility / fertility
[39] = group: reproductive, reproductive / reproductive performance / fertility / fertility + reproductive / offspring survival early / live fetuses / live fetuses
[40] = group: maternal, reproductive / reproductive performance / fertility / fertility + reproductive / reproductive performance / mating / mating
[41] = group: systemic, systemic / organ weight / epididymis / absolute + systemic / organ weight / prostate / absolute + systemic / organ weight / seminal vesicle…
[42] = group: systemic, systemic / pathology gross / sperm measure / sperm count + systemic / pathology gross / sperm measure / sperm motility
[43] = group: maternal, reproductive / reproductive performance / implantations / implantations
[44] = group: parental, systemic / clinical chemistry / luteinizing hormone (lh) / luteinizing hormone (lh) + systemic / clinical chemistry / progesterone / …
[45] = group: parental, systemic / in life observation / body weight / body weight gain
[46] = group: offspring, developmental / offspring survival late / viability index / viability index + systemic / in life observation / body weight / offspring (pup…
[47] = group: offspring, systemic / in life observation / body weight / offspring (pup) weight + systemic / organ weight / liver / absolute + systemic / organ weight…
[48] = group: parental, systemic / in life observation / body weight / body weight + systemic / in life observation / mortality / mortality + systemic / organ …
[49] = group: parental, systemic / in life observation / mortality / mortality + systemic / organ weight / kidney / absolute + systemic / organ weight / kidney / …
[50] = group: reproductive, reproductive / reproductive performance / fertility / fertility + reproductive / offspring survival early / litter size / litter size + …
[51] = group: reproductive, reproductive / reproductive performance / fertility / fertility + reproductive / reproductive performance / implantations / implantations + …
[52] = systemic / pathology microscopic / kidney / vacuolization cytoplasmic + systemic / in life observation / body weight / body weight + …

NC(=O)N/N=C/c1ccc([N+](=O)[O-])o1 [Nitrofurazone]
LEL (mouse [1]): 14 mg/kg/day
LOAEL (mouse [1]): 14 mg/kg/day
NEL (mouse [1]): < 14 mg/kg/day
NOAEL (mouse [1]): < 14 mg/kg/day
LOAEL (mouse [2]; [17]): 94.5 mg/kg/day
NOAEL (mouse [2]; [17]): < 94.5 mg/kg/day
LEL (mouse [2]; [18]): 94.5 mg/kg/day
NEL (mouse [2]; [18]): < 94.5 mg/kg/day
LEL (mouse [3]; [19]): 81.7 mg/kg/day
LOAEL (mouse [3]; [19]): > 81.7 mg/kg/day
NEL (mouse [3]; [19]): 41.2 mg/kg/day
NOAEL (mouse [3]; [19]): ≥ 81.7 mg/kg/day
LEL (mouse [3]; [20]): 41.2 mg/kg/day
LOAEL (mouse [3]; [20]): 41.2 mg/kg/day
NEL (mouse [3]; [20]): 13.6 mg/kg/day
NOAEL (mouse [3]; [20]): 13.6 mg/kg/day
LEL (rat [4]): 11 mg/kg/day
LOAEL (rat [4]): 11 mg/kg/day
NEL (rat [4]): < 11 mg/kg/day
NOAEL (rat [4]): < 11 mg/kg/day
LEL (rabbit; [21]): 20 mg/kg/day
LOAEL (rabbit; [21]): 20 mg/kg/day
NEL (rabbit; [21]): 15 mg/kg/day
NOAEL (rabbit; [21]): 15 mg/kg/day
LOAEL (rabbit; group: maternal, reproductive / reproductive performance / resorptions / resorptions): 20 mg/kg/day
NEL (rabbit; [22]): 5 mg/kg/day
NOAEL (rabbit; [22]): 15 mg/kg/day
LEL (rabbit; group: maternal, systemic / in life observation / body weight / body weight): 10 mg/kg/day
LOAEL (rat [5]; [23]): 125 mg/kg/day
NOAEL (rat [5]; [23]): 62.5 mg/kg/day
LEL (rat [5]; [24]): 31.5 mg/kg/day
NEL (rat [5]; [24]): < 31.5 mg/kg/day
LEL (mouse [6]; [25]): 15 mg/kg/day
NEL (mouse [6]; [25]): < 15 mg/kg/day
LOAEL (mouse [6]; [26]): > 112 mg/kg/day
NOAEL (mouse [6]; [26]): ≥ 112 mg/kg/day
LOAEL (mouse [6]; [27]): > 112 mg/kg/day
NOAEL (mouse [6]; [27]): ≥ 112 mg/kg/day
LEL (mouse [6]; [28]): 15 mg/kg/day
NEL (mouse [6]; [28]): < 15 mg/kg/day
LOAEL (mouse [6]; [29]): > 112 mg/kg/day
NOAEL (mouse [6]; [29]): ≥ 112 mg/kg/day
LEL (mouse [6]; [30]): 15 mg/kg/day
NEL (mouse [6]; [30]): < 15 mg/kg/day
LOAEL (mouse [7]; [31]): > 188 mg/kg/day
NEL (mouse [7]; [31]): 46.5 mg/kg/day
NOAEL (mouse [7]; [31]): ≥ 188 mg/kg/day
LEL (mouse [7]; systemic / in life observation / clinical signs / [other] + systemic / in life observation / clinical signs / excitation + systemic / in …): 93 mg/kg/day
NEL (rat [8]; systemic / organ weight / liver / relative to body weight + systemic / in life observation / body weight / body weight + systemic / in life …): 7.5 mg/kg/day
LOAEL (rat [8]; systemic / pathology microscopic / testes / degeneration): 15.5 mg/kg/day
NOAEL (rat [8]; systemic / pathology microscopic / testes / degeneration + systemic / in life observation / body weight / body weight + systemic / in life …): 7.5 mg/kg/day
LEL (rat [8]; systemic / pathology microscopic / testes / degeneration + systemic / organ weight / liver / relative to body weight): 15.5 mg/kg/day

[Cl][Hg][Cl] [Mercuric chloride]
LOAEL (mouse [9]; [32]): 5 mg/kg/day
NOAEL (mouse [9]; [32]): < 5 mg/kg/day
LEL (mouse [9]; [33]): 5 mg/kg/day
NEL (mouse [9]; [33]): < 5 mg/kg/day
LEL (rat [10]; [34]): 0.312 mg/kg/day
NEL (rat [10]; [34]): < 0.312 mg/kg/day
NOAEL (rat [10]; systemic / in life observation / body weight / body weight + systemic / pathology microscopic / kidney / nephropathy + systemic / organ …): 2.5 mg/kg/day
LOAEL (rat [10]; systemic / pathology microscopic / kidney / nephropathy): 5 mg/kg/day
LEL (mouse [11]; [35]): 1 mg/kg/day
LOAEL (mouse [11]; [35]): > 1 mg/kg/day
NEL (mouse [11]; [35]): 0.5 mg/kg/day
NOAEL (mouse [11]; [35]): ≥ 1 mg/kg/day
LEL (mouse [11]; [36]): 0.25 mg/kg/day
NEL (mouse [11]; [36]): < 0.25 mg/kg/day
LOAEL (mouse [11]; [37]): > 1 mg/kg/day
NOAEL (mouse [11]; [37]): ≥ 1 mg/kg/day
LEL (mouse [11]; [38]): 0.25 mg/kg/day
NEL (mouse [11]; [38]): < 0.25 mg/kg/day
LOAEL (mouse [11]; [39]): > 1 mg/kg/day
NOAEL (mouse [11]; [39]): ≥ 1 mg/kg/day
LEL (rat [12]; [40]): 5 mg/kg/day
LOAEL (rat [12]; [40]): > 5 mg/kg/day
NEL (rat [12]; [40]): 2.5 mg/kg/day
NOAEL (rat [12]; [40]): ≥ 5 mg/kg/day
LOAEL (rat [12]; [41]): > 5 mg/kg/day
NOAEL (rat [12]; [41]): ≥ 5 mg/kg/day
LEL (rat [12]; [42]): 2.5 mg/kg/day
NEL (rat [12]; [42]): < 2.5 mg/kg/day
LEL (rat [13]; [43]): 2 mg/kg/day
LOAEL (rat [13]; [43]): > 2 mg/kg/day
NEL (rat [13]; [43]): 1 mg/kg/day
NOAEL (rat [13]; [43]): ≥ 2 mg/kg/day
LOAEL (rat [13]; [44]): > 2 mg/kg/day
NOAEL (rat [13]; [44]): ≥ 2 mg/kg/day
LEL (rat [13]; [45]): 1 mg/kg/day
NEL (rat [13]; [45]): < 1 mg/kg/day
LOAEL (rat [14]; [46]): > 2.5 mg/kg/day
NOAEL (rat [14]; [46]): ≥ 2.5 mg/kg/day
LEL (rat [14]; [47]): 0.5 mg/kg/day
NEL (rat [14]; [47]): < 0.5 mg/kg/day
LOAEL (rat [14]; [48]): > 2.5 mg/kg/day
NOAEL (rat [14]; [48]): ≥ 2.5 mg/kg/day
LEL (rat [14]; [49]): 0.5 mg/kg/day
NEL (rat [14]; [49]): < 0.5 mg/kg/day
LEL (rat [14]; [50]): 0.5 mg/kg/day
NEL (rat [14]; [50]): < 0.5 mg/kg/day
LOAEL (rat [14]; [51]): > 2.5 mg/kg/day
NOAEL (rat [14]; [51]): ≥ 2.5 mg/kg/day
LOAEL (mouse [15]; systemic / pathology microscopic / kidney / vacuolization cytoplasmic): 10 mg/kg/day
NEL (mouse [15]; [52]): 2.5 mg/kg/day
NOAEL (mouse [15]; [52]): 5 mg/kg/day
LEL (mouse [15]; systemic / pathology microscopic / kidney / vacuolization cytoplasmic + systemic / organ weight / kidney / absolute): 5 mg/kg/day
LEL (rat [16]): 2.5 mg/kg/day
LOAEL (rat [16]): 2.5 mg/kg/day
NEL (rat [16]): < 2.5 mg/kg/day
NOAEL (rat [16]): < 2.5 mg/kg/day
